Where “and” joins values, the source holds several entries; their conditions need not be identical. Equal entries are not always repeated. Where two headings read alike, the source gives them in different places.

For assay [1], the system named is human cervical tumor cell line HeLa (ATCC CCL-2). Description: SAC-Formation - Paclitaxel-Induced Assay. Particulars: 24 h, HeLa cells, paclitaxel 0.05 μM, test range 0.005 μM-20 μM, read-out: IC50 [mol/l] SAC-Formation - Paclitaxel-Induced Assay. Type of assay: cell-based. Summed up:
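HeLa cells incubated overnight at 37° C, then given paclitaxel (0.05 μM final) plus test compound (0.005–20 μM, 0.5% DMSO) together for 24 h at 37° C. Fixed cells stained for phospho-histone H3 Ser10 (mitotic cells) and Hoechst 33342 (cell count); imaging-derived mitotic index fitted by four-parameter Hill equation.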

Assay [2] has as its target T1, catalytic domain of human Bub1 (amino acids 704-1085) (Homo sapiens, UniProt O43683).
T1 construct: catalytic domain of human Bub1 (amino acids 704-1085); His6 (N); made in house; host or cells: insect cells (Hi5)
Description: Bub1 kinase assay (TR-FRET). The assay is classed as biochemical. As to conditions: 10 μM ATP, avg, read-out: Bub1 avg (IC50 [mol/l]). The source says:
Bub1-inhibitory activity of compounds of the present invention was quantified employing the Bub1 TR-FRET assay as described in the following paragraphs.
N-terminally His6-tagged recombinant catalytic domain of human Bub1 (amino acids 704-1085), expressed in insect cells (Hi5) and purified by Ni-NTA affinity chromatography and subsequent size exclusion chromatography, was used as enzyme. As substrate for the kinase reaction the biotinylated peptide biotin-Ahx-VLLPKKSFAEPG (C-terminus in amid form) was used which can be purchased e.g. form the company Biosyntan (Berlin, Germany).
For the assay 50 nl of a 100fold concentrated solution of the test compound in DMSO was pipetted into a black low volume 384well microtiter plate (Greiner Bio-One, Frickenhausen, Germany), 2 μl of a solution of Bub1 in aqueous assay buffer [50 mM Tris/HCl pH 7.5, 10 mM magnesium chloride (MgCl2), 200 mM potassium chloride (KCl), 1.0 mM dithiothreitol (DTT), 0.1 mM sodium ortho-vanadate, 1% (v/v) glycerol, 0.01% (w/v) bovine serum albumine (BSA), 0.005% (v/v) Trition X-100 (Sigma), 1× Complete EDTA-free protease inhibitor mixture (Roche)] were added and the mixture was incubated for 15 min at 22° C. to allow pre-binding of the test compounds to the enzyme before the start of the kinase reaction. Then the kinase reaction was started by the addition of 3 μl of a solution of adenosine-tri-phosphate (ATP, 16.7 μM=>final conc. in the 5 μl assay volume is 10 μM) and substrate (1.67 μM=>final conc. in the 5 μl assay volume is 1 μM) in assay buffer and the resulting mixture was incubated for a reaction time of 60 min at 22° C. The concentration of Bub1 was adjusted depending of the activity of the enzyme lot and was chosen appropriate to have the assay in the linear range, typical concentrations were in the range of 200 ng/ml. The reaction was stopped by the addition of 5 μl of a solution of TR-FRET detection reagents (0.2 μM streptavidine-XL665 [Cisbio Bioassays, Codolet, France] and 1 nM anti-phosho-Serine antibody [Merck Millipore, cat. #35-001] and 0.4 nM LANCE EU-W1024 labeled anti-mouse IgG antibody [Perkin-Elmer, product no. AD0077, as an alternative a Terbium-cryptate-labeled anti-mouse IgG antibody from Cisbio Bioassays can be used]) in an aqueous EDTA-solution (50 mM EDTA, 0.2% (w/v) bovine serum albumin in 100 mM HEPES pH 7.5).
The resulting mixture was incubated 1 h at 22° C. to allow the formation of complex between the phosphorylated biotinylated peptide and the detection reagents. Subsequently the amount of phosphorylated substrate was evaluated by measurement of the resonance energy transfer from the Eu-chelate to the streptavidine-XL. Therefore, the fluorescence emissions at 620 nm and 665 nm after excitation at 350 nm was measured in a TR-FRET reader, e.g. a Rubystar or Pherastar (both from BMG Labtechnologies, Offenburg, Germany) or a Viewlux (Perkin-Elmer). The ratio of the emissions at 665 nm and at […] was taken as the measure for the amount of phosphorylated substrate. The data were normalised (enzyme reaction without inhibitor=0% inhibition, all other assay components but no enzyme=100% inhibition).
(TR-FRET usually uses a lanthanide donor and a delayed reading to cut background.)

T1 sequence (O43683 704-1085): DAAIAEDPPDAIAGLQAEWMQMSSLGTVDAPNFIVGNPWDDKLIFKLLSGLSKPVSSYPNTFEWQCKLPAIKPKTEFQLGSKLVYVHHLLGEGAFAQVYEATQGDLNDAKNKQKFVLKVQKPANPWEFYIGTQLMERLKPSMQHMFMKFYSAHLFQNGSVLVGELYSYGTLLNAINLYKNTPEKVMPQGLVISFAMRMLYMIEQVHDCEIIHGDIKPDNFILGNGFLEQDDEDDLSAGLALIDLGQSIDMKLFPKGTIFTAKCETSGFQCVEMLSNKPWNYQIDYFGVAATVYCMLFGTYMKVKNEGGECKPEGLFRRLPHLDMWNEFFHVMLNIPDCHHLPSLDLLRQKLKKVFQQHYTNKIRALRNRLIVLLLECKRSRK

For the compound `COC(=O)CNC(=O)c1cccc(NC(=O)c2c(C)nsc2Nc2cnc3ccccc3n2)c1` [Example 100, Methyl N-[3-({[3-methyl-5-(quinoxalin-2-ylamino)-1,2-thiazol-4-yl]carbonyl}amino)-benzoyl]glycinate], the IC50 in assay [1] (Homo sapiens, HeLa) amounted to 20 µM; in assay [2] it was 9 µM.
With `Cc1nsc(Nc2cnc(C(F)(F)F)cn2)c1C(=O)Nc1ccc(OC2CCN(CCF)CC2)c(F)c1` [Example 162, N-(3-fluoro-4-{[1-(2-fluoroethyl)piperidin-4-yl]oxy}phenyl)-3-methyl-5-{[5-(trifluoromethyl)pyrazin-2-yl]amino}-1,2-thiazole-4-carboxamide], the IC50 in assay [1] (Homo sapiens, HeLa) was 0.12 µM; in assay [2], greater than 20 µM.
`Cc1nsc(Nc2cnc(C(F)(F)F)cn2)c1C(=O)Nc1ccc(C(=O)NC2CCN(CC(F)(F)F)CC2)cc1` [Example 165, 3-methyl-N-(4-{[1-(2,2,2-trifluoroethyl)piperidin-4-yl]carbamoyl}phenyl)-5-{[5-(trifluoromethyl)pyrazin-2-yl]amino}-1,2-thiazole-4-carboxamide]: the IC50 in assay [1] (Homo sapiens, HeLa) is 0.59 µM; in assay [2], greater than 20 µM.
As to `Cc1nsc(Nc2cnc(C(F)(F)F)cn2)c1C(=O)Nc1ccc(OC2CCN(C(C)C)CC2)nc1` [Example 160, N-{6-[(1-isopropylpiperidin-4-yl)oxy]pyridin-3-yl}-3-methyl-5-{[5-(trifluoromethyl)pyrazin-2-yl]amino}-1,2-thiazole-4-carboxamide], the IC50 in assay [1] (Homo sapiens, HeLa) is 3.6 µM; in assay [2] it was greater than 20 µM.
On to `CCNS(=O)(=O)c1ccc(NC(=O)c2c(C)nsc2Nc2cnc3ccccc3n2)cc1` [Example 116, N-[4-(Ethylsulfamoyl)phenyl]-3-methyl-5-(quinoxalin-2-ylamino)-1,2-thiazole-4-carboxamide], for which the IC50 was 1.5 µM in assay [1] (Homo sapiens, HeLa) and no less than 20 µM in assay [2].
`Cc1nsc(Nc2cnc3ccccc3n2)c1C(=O)Nc1ccc(C(=O)N2CCN(CC(F)F)CC2)cc1` [Example 157, N-(4-{[4-(2,2-difluoroethyl)piperazin-1-yl]carbonyl}phenyl)-3-methyl-5-(quinoxalin-2-ylamino)-1,2-thiazole-4-carboxamide]: the IC50 is 0.9 µM in assay [1] (Homo sapiens, HeLa) and greater than 20 µM in assay [2].
`Cc1nsc(Nc2cnc(C(F)(F)F)cn2)c1C(=O)Nc1ccc(OC[C@@H]2CCN(CC(F)F)C2)nc1` [Example 127, N-(6-{[(3R)-1-(2,2-difluoroethyl)pyrrolidin-3-yl]methoxy}pyridin-3-yl)-3-methyl-5-{[5-(trifluoromethyl)pyrazin-2-yl]amino}-1,2-thiazole-4-carboxamide]: the IC50 in assay [1] (Homo sapiens, HeLa) was 0.083 µM; in assay [2], no less than 20 µM.
`Cc1nsc(Nc2cnc(C(F)(F)F)cn2)c1C(=O)Nc1ccc(OC[C@@H]2CCN(CC(F)(F)F)C2)nc1` [Example 128, 3-Methyl-N-(6-{[(3R)-1-(2,2,2-trifluoroethyl)pyrrolidin-3-yl]methoxy}pyridin-3-yl)-5-{[5-(trifluoromethyl)pyrazin-2-yl]amino}-1,2-thiazole-4-carboxamide]: the IC50 in assay [1] (Homo sapiens, HeLa) was 0.07 µM; in assay [2], greater than 20 µM.
For the compound `Cc1nsc(Nc2cnc3cc(F)ccc3n2)c1C(=O)Nc1ccc(S(N)(=O)=O)cc1` [Example 149, 5-[(6-fluoroquinoxalin-2-yl)amino]-3-methyl-N-(4-sulfamoylphenyl)-1,2-thiazole-4-carboxamide], the IC50 was 1.6 µM in assay [1] (Homo sapiens, HeLa) and greater than 20 µM in assay [2].
For `Cc1nsc(Nc2cnc(C(F)(F)F)cn2)c1C(=O)Nc1ccc(F)c(C(N)=O)c1` [Example 151, N-(3-carbamoyl-4-fluorophenyl)-3-methyl-5-{[5-(trifluoromethyl)pyrazin-2-yl]amino}-1,2-thiazole-4-carboxamide], the IC50 was 1.3 µM in assay [1] (Homo sapiens, HeLa) and 4.3 µM in assay [2].
In the case of `Cc1nsc(Nc2cnc3ccccc3n2)c1C(=O)Nc1cccc(C(=O)N[C@H](C(=O)O)[C@@H](C)OC(C)(C)C)c1` [Example 104, O-tert-Butyl-N-[3-({[3-methyl-5-(quinoxalin-2-ylamino)-1,2-thiazol-4-yl]-carbonyl}amino)benzoyl]threonine], the IC50 in assay [1] (Homo sapiens, HeLa) is 3.2 µM; in assay [2], no less than 20 µM.
On to `Cc1nsc(Nc2cc(C#N)ccn2)c1C(=O)Nc1ccc(Oc2cccnc2)nc1` [Example 119, 5-[(4-Cyanopyridin-2-yl)amino]-3-methyl-N-[6-(pyridin-3-yloxy)pyridin-3-yl]-1,2-thiazole-4-carboxamide], for which the IC50 was 20 µM in assay [1] (Homo sapiens, HeLa) and no less than 20 µM in assay [2].
`Cc1nsc(Nc2ccc(C#N)cn2)c1C(=O)Nc1ccc(C(=O)OC(C)(C)C)cc1` [Example 98, tert-Butyl 4-[({5-[(5-cyanopyridin-2-yl)amino]-3-methyl-1,2-thiazol-4-yl}carbonyl)-amino]benzoate]: the IC50 in assay [1] (Homo sapiens, HeLa) was 0.0079 µM; in assay [2], no less than 20 µM.
Take `Cc1nsc(Nc2cnc3ccccc3n2)c1C(=O)Nc1ccc(NC2CC2)nc1` [Example 172, N-[6-(cyclopropylamino)pyridin-3-yl]-3-methyl-5-(quinoxalin-2-ylamino)-1,2-thiazole-4-carboxamide]: the IC50 in assay [1] (Homo sapiens, HeLa) was 2.3 µM; in assay [2] it was > 20 µM and 18 µM.
For the compound `Cc1nsc(Nc2cnc(C(F)(F)F)cn2)c1C(=O)Nc1ccc(OC[C@H]2CCN(CC(F)(F)F)C2)nc1` (racemic) [Example 133, 3-Methyl-N-(6-{[(SR)-1-(2,2,2-trifluoroethyl)pyrrolidin-3-yl]methoxy}pyridin-3-yl)-5-{[5-(trifluoromethyl)pyrazin-2-yl]amino}-1,2-thiazole-4-carboxamide], in assay [2], the IC50 was greater than 20 µM.
For the compound `Cc1nsc(Nc2cnc(C(F)(F)F)cn2)c1C(=O)Nc1ccc(OC[C@H]2CCN(CC(F)F)C2)nc1` [Example 132, N-(6-{[(3S)-1-(2,2-difluoroethyl)pyrrolidin-3-yl]methoxy}pyridin-3-yl)-3-methyl-5-{[5-(trifluoromethyl)pyrazin-2-yl]amino}-1,2-thiazole-4-carboxamide], the IC50 in assay [2] is greater than 20 µM.
For the compound `Cc1nsc(Nc2cnc(C(F)(F)F)cn2)c1C(=O)Nc1ccc(F)c(OCC2CCCN(CC(F)F)C2)c1` (centres unmarked) [Example 335, N-(3-{[1-(2,2-difluoroethyl)piperidin-3-yl]methoxy}-4-fluorophenyl)-3-methyl-5-{[5-(trifluoromethyl)pyrazin-2-yl]amino}-1,2-thiazole-4-carboxamide], the IC50 in assay [1] was 0.098 µM; in assay [2], no less than 20 µM.
On to `Cc1nsc(Nc2cnc(C(F)(F)F)cn2)c1C(=O)Nc1ccc(OC2CCN(CCC(F)(F)F)CC2)nc1` [Example 10, 3-Methyl-5-{[5-(trifluoromethyl)pyrazin-2-yl]amino}-N-(6-{[1-(3,3,3-trifluoropropyl)-piperidin-4-yl]oxy}pyridin-3-yl)-1,2-thiazole-4-carboxamide], for which the IC50 was 0.34 µM in assay [1] and no less than 20 µM in assay [2].
As to `Cc1nsc(Nc2cnc(C(F)(F)F)cn2)c1C(=O)Nc1ccc(OC[C@H]2CCN(CCC(F)(F)F)C2)nc1` [Example 134, 3-Methyl-5-{[5-(trifluoromethyl)pyrazin-2-yl]amino}-N-(6-{[(3S)-1-(3,3,3-trifluoropropyl)pyrrolidin-3-yl]methoxy}pyridin-3-yl)-1,2-thiazole-4-carboxamide], in assay [2], the IC50 was greater than 20 µM.

The values above are taken from patent US20170334899A1, “AMINO-SUBSTITUTED ISOTHIAZOLES” (Bayer Pharma Aktiengesellschaft, priority 2014, published 2017).
